What was measured:
Assay in all cases: 3D clonogenic assay in patient derived organoids
Assay type in all cases: cell-based, human
[1] = tested on: LXFA644 organoid, NSCLC (adenocarcinoma subtype); conditions: for Combination activity 5 μM Compound 1 (cAUC % reduction): chemotherapy dose titration + 5 μM Compound 1 vs chemotherapy alone
Method: (§1) Five tumor cell lines (4T1.2, A549, EMT6, NCI-H460, and HT29) were treated with a range of paclitaxel or 5-FU concentrations in the presence of dimethlylsulfoxide (DMSO), 5 μM Compound 1, or 20 μM Compound 1. Cells were imaged 4 days after treatment and percent confluence was assessed by image quantification. EC50 values for cell confluence were used to assess chemotherapy potency. Eleven patient-derived tumor organoids (MAXFTN449, MAXFTN2990, PAXF1657, PAXF2131, CXF1256, CXF2129, CXF2061, LXFE2478, LXFE690, LXFA677, LXFA644) were seeded in a 3D matrix and treated with a range of paclitaxel, 5-FU, SN38, Gemcitabine, oxaliplatin, and carboplatin concentrations in the presence of DMSO, 5 μM Compound 1, or 20 μM Compound 1. After 8 to 13 days in culture, colonies were stained, imaged, and counted. A dose response curve was generated for chemotherapy alone or chemotherapy in combination with 5 or 20 μM Compound 1. Combination activity was defined as a percentage of the area under the chemotherapy dose response curve (cAUC) for Compound 1 combination groups compared to the cAUC of chemotherapy alone.
(§2) For combination experiments, working stock solutions of all compounds were prepared in DMSO at concentrations of 660-fold the highest test concentration used and stored at −20° C. Platin compounds were prepared freshly on each treatment day. On each day of an experiment, an aliquot of the working stock solutions was used and stored at room temperature prior to and during treatment. First, 1:2 dilutions of 660-fold concentrated working stocks were prepared in DMSO (in case of monotherapy controls), or equal amounts of the compound working stocks were mixed (in case of drug combinations). Then, different dilutions of these 330-fold concentrated solutions were prepared in DMSO to give an 8×2 matrix combination layout with conditions. The DMSO dilutions were further diluted […] into cell culture medium (IMDM, supplemented with 20% (v/v) fetal bovine serum, and 50 μg/mL gentamicin) in an intermediate dilution plate. Finally, 10 μL taken from the intermediate dilution plate were transferred to 140 μL of cells and medium per well of the final assay plate. Thus, the DMSO dilutions used for the mono- and the combination-treatment were diluted 1:660, and the DMSO concentration in the assay was […].
(§3) Tumors were passaged as subcutaneous xenografts in NMRI nu/nu mice. At a tumor volume of 400 to 1000 mm^3, tumor-bearing mice were euthanized, and tumors were collected under sterile conditions without delay. Tumors were mechanically disaggregated and subsequently incubated with an enzyme cocktail consisting of collagenase type IV (41 U/mL), DNase I (125 U/mL), hyaluronidase type III (100 U/mL), and dispase II (1 U/mL) in RPMI 1640 medium at 37° C. for 60 to 120 minutes. Cells were passed through sieves of 100 μm and 40 μm mesh size, and washed with RPMI 1640 medium. The percentage of viable cells was determined in a Neubauer-hemocytometer using trypan blue exclusion. Aliquots of the cells were frozen down and stored in liquid nitrogen vapor phase. On each day of an experiment, a frozen aliquot of tumor cells was thawed and used for preparation of assay plates.
(§4) The clonogenic assay was carried out in a 96 well plate format using ultra low attachment plates. For each test, plates were prepared as follows: each test well contained a layer of semi-solid medium with tumor cells (50 μL), and a second layer of medium supernatant with or without test compound (100 μL). The cell layer consisted of […] to 12.5×10^3 tumor cells per well, which were seeded in 50 μL/well cell culture medium (IMDM, supplemented with 20% (v/v) fetal bovine serum, 50 μg/mL gentamicin, and 0.4% (w/v) agar). After 24 hours, the soft-agar layer was covered with 90 μL of the same culture medium without agar, and 10 μL of control medium or test compound after serial dilution in DMSO for the duration of the experiment (continuous exposure, 100 μL drug overlay).

[2] = tested on: LXFA677 organoid, NSCLC (adenocarcinoma subtype)
Method: as §1, §2, §3, §4

[3] = tested on: LXFE2478 organoid, NSCLC (squamous subtype)
Method: as §1, §2, §3, §4

[4] = tested on: LXFE690 organoid, NSCLC (squamous subtype)
Method: as §1, §2, §3, §4

[5] = tested on: CXF1256 organoid, colon cancer; conditions: for Combination activity 5 μM Compound 1 (cAUC % reduction): chemotherapy dose titration + 5 μM Compound 1 vs chemotherapy alone; for Combination activity 20 μM Compound 1 (cAUC % reduction): chemotherapy dose titration + 20 μM Compound 1 vs chemotherapy alone
Method: as §1, §2, §3, §4

[6] = tested on: CXF2061 organoid, colon cancer; conditions: for Combination activity 5 μM Compound 1 (cAUC % reduction): chemotherapy dose titration + 5 μM Compound 1 vs chemotherapy alone; for Combination activity 20 μM Compound 1 (cAUC % reduction): chemotherapy dose titration + 20 μM Compound 1 vs chemotherapy alone
Method: as §1, §2, §3, §4

[7] = tested on: CXF2129 organoid, colon cancer; conditions: for Combination activity 5 μM Compound 1 (cAUC % reduction): chemotherapy dose titration + 5 μM Compound 1 vs chemotherapy alone; for Combination activity 20 μM Compound 1 (cAUC % reduction): chemotherapy dose titration + 20 μM Compound 1 vs chemotherapy alone
Method: as §1, §2, §3, §4

[8] = tested on: MAXFTN2990 organoid, breast cancer (triple negative)
Method: as §1, §2, §3, §4

[9] = tested on: MAXFTN449 organoid, breast cancer (triple negative)
Method: as §1, §2, §3, §4

[10] = chemotherapy dose titration + 20 μM Compound 1 vs chemotherapy alone
[11] = chemotherapy dose titration + 5 μM Compound 1 vs chemotherapy alone

Row | SMILES | Combination activity 5 μM Compound 1 (cAUC % reduction) [1] | Combination activity 5 μM Compound 1 (cAUC % reduction) ([1]; listed as carboplatin) | Combination activity 20 μM Compound 1 (cAUC % reduction) [1, 10] | Combination activity 5 μM Compound 1 (cAUC % reduction) [2, 11] | Combination activity 20 μM Compound 1 (cAUC % reduction) [2, 10] | Combination activity 5 μM Compound 1 (cAUC % reduction) [3, 11] | Combination activity 20 μM Compound 1 (cAUC % reduction) [3, 10] | Combination activity 5 μM Compound 1 (cAUC % reduction) [4, 11] | Combination activity 20 μM Compound 1 (cAUC % reduction) [4, 10] | Combination activity 5 μM Compound 1 (cAUC % reduction) [5] | Combination activity 20 μM Compound 1 (cAUC % reduction) [5] | Combination activity 5 μM Compound 1 (cAUC % reduction) [6] | Combination activity 20 μM Compound 1 (cAUC % reduction) [6] | Combination activity 5 μM Compound 1 (cAUC % reduction) [7] | Combination activity 20 μM Compound 1 (cAUC % reduction) [7] | Combination activity 5 μM Compound 1 (cAUC % reduction) [8, 11] | Combination activity 20 μM Compound 1 (cAUC % reduction) [8, 10] | Combination activity 5 μM Compound 1 (cAUC % reduction) [9, 11] | Combination activity 20 μM Compound 1 (cAUC % reduction) [9, 10]
1 | N.N.O=C([O-])C1(C(=O)[O-])CCC1.[Pt+2] [Carboplatin, carboplatin] | 5% | 50% | 19% | 7% | 14% | 27% | 3% | 73% | 80% | – | – | – | – | – | – | – | – | – | –
2 | O=C1[O][Pt]2([NH][C@@H]3CCCC[C@H]3[NH]2)[O]C1=O [Oxaliplatin, oxaliplatin] | – | – | – | – | – | – | – | – | – | 70% | 63% | 13% | −18% | 37% | 9% | – | – | – | –
3 | CCc1c2c(nc3ccc(O)cc13)-c1cc3c(c(=O)n1C2)COC(=O)[C@]3(O)CC [SN38] | – | – | – | – | – | – | – | – | – | 90% | 91% | 22% | 26% | 44% | 33% | 57% | 74% | 58% | 46%

Reference: US20240165112A1, “THERAPY FOR THE TREATMENT OF CANCER” (Bristol-Myers Squibb Company, priority 2022, published 2024)
